# Tested on: NC09 H1N1 virus
# Assay type: in vivo
# Conditions: unimmunized mice, 20 mg/kg/day
smiles,measurement,value
CCOC(=O)C1=C[C@@H](OC(CC)CC)[C@H](NC(C)=O)[C@@H](N)C1 [oseltamivir],control of NC09 viral infection,but not NC09
